The results in this text go back to US9321747B2, “Acid addition salt of substituted pyridine compound” (DAIICHI SANKYO COMPANY, LIMITED, priority 2012, dated 2016).

In this assay the target is recombinant human CETP protein (Homo sapiens (Human), UniProt P11597). Nature of the assay: Test of CETP inhibition activity (in vitro, buffer-based). In kind it is biochemical. The note with it: [14C]-cholesteryl ester transfer from reconstituted HDL to acceptor lipoprotein, 37° C., 60 minutes, PBS buffer. As to the method:
Test of CETP Inhibition Activity (In Vitro, Buffer-Based)
(1) Preparation of Reconstituted HDL
Cholesterol (1.125 μmol), phosphatidyl choline (4.5 μmol) and [^14C]-labeled cholesteryl ester (2.0 μCi; 40 μl) were taken in a glass test tube and well mixed with a vortex, and dried under a nitrogen gas current so that it formed a thin film. The obtained mixture was dissolved in ethanol (200 μl), which was designated as Solution A. A PBS solution [a mixed solution of Na2HPO4 (30 mM), KH2PO4 (8.8 mM), NaCl (60 mM) and EDTA (pH 7.4; 0.67 mM); 4 ml] was taken in a tube and the reaction solution was vigorously stirred with a vortex under a nitrogen current. The above-described Solution A was gently injected into this mixture with a syringe and the reaction solution was vigorously stirred with a vortex for 5 minutes under a nitrogen current. Sodium cholate (200 mM; 0.38 ml) was added to the obtained mixture and the reaction solution was stirred for 2 minutes. ApoA-I protein (3 mg) was added to the obtained mixture and the reaction solution was stirred for 2 minutes. The obtained mixture was adjusted to 5 ml with the PBS solution and then dialyzed with the PBS solution. The obtained mixture was designated as the reconstituted HDL.
(2) Preparation of Acceptor Lipoprotein
NaBr was added to the plasma of a healthy person and the density of the mixture was adjusted to 1.019, and the mixture was subjected to density gradient centrifugation (40000 rpm, for 16 hours) to remove the fraction having a density of less than 1.019. NaBr was added to the obtained mixture and the density of the solution was adjusted to 1.063, and the solution was subjected to density gradient centrifugation (40000 rpm, 18 hours) to provide the fraction consisting of IDL (intermediate density lipoprotein) and LDL (1.019<density<1.063). The obtained fraction was dialyzed with the PBS solution. The obtained mixture was designated as the acceptor lipoprotein.
(3) Measurement of CETP Inhibition Activity
A recombinant human CETP protein (manufactured by Roar Biomedical Inc.; 4.5 ng), the acceptor lipoprotein described in (2) above (32.5 μg) and 5,5′-dithio-bis-(2-nitrobenzoic acid) (7 mM, 15 μl) were taken in a 96 well plate and the total amount of the mixture was adjusted to 48.5 μl with the PBS solution. The test compound [DMSO solution (concentration: 0.15, 0.5, 1.5, 5, 15, 50, 150 and 500 μM); 1.5 μl] was added to each well and the mixture was incubated in a thermostatic bath at 37° C. for 60 minutes. The reconstituted HDL (50 μl) described in (1) above was added to each well and the mixture was reacted in a thermostatic bath at 37° C. for 60 minutes. The 96 well plate was moved onto ice and a precipitation reagent [a mixed solution of magnesium chloride (60 mM) and 0.1% dextran sulfate[1/1(v/v)]; 15 μl] was added to each well, and then the mixture was allowed to stand on ice for 15 minutes. The reaction solution (80 μl) in each well was moved to a filter plate and centrifuged at 1500 rpm for 1 minute, and the filtrate which passed through the filter was designated as the HDL fraction and the radioactivity thereof was measured with a scintillation counter. The percentage decrease in radioactivity in the case where the test compound was added in comparison with that in case where the test compound was not added was designated as the percentage CETP inhibition. The IC50 value was calculated from the percentage CETP inhibition.

Counter-ions that a name gives are not always drawn.

Sequence of recombinant human CETP protein (P11597 18-493): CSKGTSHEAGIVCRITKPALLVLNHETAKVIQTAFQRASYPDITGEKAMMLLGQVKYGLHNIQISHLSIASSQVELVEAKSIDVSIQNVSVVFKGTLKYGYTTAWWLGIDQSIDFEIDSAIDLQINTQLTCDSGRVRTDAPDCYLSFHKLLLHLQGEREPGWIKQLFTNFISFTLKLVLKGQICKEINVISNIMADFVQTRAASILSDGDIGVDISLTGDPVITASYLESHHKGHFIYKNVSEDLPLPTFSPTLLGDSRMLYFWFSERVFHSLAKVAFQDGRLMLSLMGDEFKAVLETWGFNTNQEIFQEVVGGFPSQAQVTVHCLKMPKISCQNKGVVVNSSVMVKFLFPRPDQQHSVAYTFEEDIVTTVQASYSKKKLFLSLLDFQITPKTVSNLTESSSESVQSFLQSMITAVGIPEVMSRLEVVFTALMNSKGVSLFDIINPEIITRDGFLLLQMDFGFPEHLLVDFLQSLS

Regarding `CC1(C)Cc2nc(C3CCN(c4ncc(OCCCS(C)(=O)=O)cn4)CC3)c([C@@H](F)c3ccc(C(F)(F)F)cc3)c(C3CCC(F)(F)CC3)c2[C@@H](O)C1` [Example 17, (5S)-4-(4,4-Difluorocyclohexyl)-3-{(S)-fluoro[4-(trifluoromethyl)phenyl]methyl}-7,7-dimethyl-2-(1-{5-[3-(methylsulfonyl)propoxy]pyrimidin-2-yl}piperidin-4-yl)-5,6,7,8-tetrahydroquinolin-5-ol dihydrochloride], the IC50 (in general, the concentration at which inhibition is half-maximal) (dihydrochloride) amounted to 10 nM. Regarding `CC1(C)Cc2nc(C3CCN(c4ncc(OCCCS(C)(=O)=O)cn4)CC3)c([C@@H](F)c3ccc(C(F)(F)F)cc3)c(C3CCC(F)(F)CC3)c2[C@@H](O)C1` [Example 18, (5S)-4-(4,4-Difluorocyclohexyl)-3-{(S)-fluoro[4-(trifluoromethyl)phenyl]methyl}-7,7-dimethyl-2-(1-{5-[3-(methylsulfonyl)propoxy]pyrimidin-2-yl}piperidin-4-yl)-5,6,7,8-tetrahydroquinolin-5-ol dihydrobromide], under “dihydrobromide”, the IC50 stood at 18.9 nM.

Consider `CC1(C)Cc2nc(C3CCN(c4ncc(OCCCS(C)(=O)=O)cn4)CC3)c([C@@H](F)c3ccc(C(F)(F)F)cc3)c(C3CCC(F)(F)CC3)c2[C@@H](O)C1` [Example 19, (5S)-4-(4,4-Difluorocyclohexyl)-3-{(S)-fluoro[4-(trifluoromethyl)phenyl]methyl}-7,7-dimethyl-2-(1-{5-[3-(methylsulfonyl)propoxy]pyrimidin-2-yl}piperidin-4-yl)-5,6,7,8-tetrahydroquinolin-5-ol methanesulfonate], for which the concentration for half-maximal inhibition (IC50) came to 22.9 nM. In the case of `CC1(C)Cc2nc(C3CCN(c4ncc(-c5cccc(C(=O)O)c5)cn4)CC3)c([C@@H](F)c3ccc(C(F)(F)F)cc3)c(C3CCC(F)(F)CC3)c2[C@@H](O)C1` [Example 20, (5S)-2-{1-[5-(3-Carboxyphenyl)pyrimidin-2-yl]piperidin-4-yl}-4-(4,4-difluorocyclohexyl)-3-{(S)-fluoro[4-(trifluoromethyl)phenyl]methyl}-7,7-dimethyl-5,6,7,8-tetrahydroquinolin-5-ol dihydrochloride], under “dihydrochloride”, the IC50 stood at 289 nM. On to `CC1(C)Cc2nc(C3CCN(c4ncc(-c5cccc(C(=O)O)c5)cn4)CC3)c([C@@H](F)c3ccc(C(F)(F)F)cc3)c(C3CCC(F)(F)CC3)c2[C@@H](O)C1` [Example 21, (5S)-2-{1-[5-(3-Carboxyphenyl)pyrimidin-2-yl]piperidin-4-yl}-4-(4,4-difluorocyclohexyl)-3-{(S)-fluoro[4-(trifluoromethyl)phenyl]methyl}-7,7-dimethyl-5,6,7,8-tetrahydroquinolin-5-ol dihydrobromide], for which the 50% inhibitory concentration (IC50) (dihydrobromide) came to 279 nM.
